Format in all cases: in vivo
Test [1] has as its system SOD in serum and homogenate of COPD model mouse. As to the kind of experiment: Effect on SOD in serum and homogenate of COPD model mouse. To be noted: ig 7 d, dose/kg: dexamethasone 1 mg, Test group 1 50, 2 25, 3 10, picrinine 10, vallesamine 6, scholaricine 7, 19-epi-scholaricine 2 mg, x ± SD; for SOD homogenate: lung homogenate. As for the experimental part:
(§1) Animal source: 25˜30 g male ICR mouse, from laboratory animal department of Kunming Medical University, License No. SCXK (Dian) 2011-0004.
(§2) Method and route: lipopolysaccharide (LPS) plus smoke exposure was used for 30 days to induce mouse chronic obstructive pulmonary disease model; and after intragastrical administration for 7 d at a dose of 20 mL/kg, the animal was sacrificed at the eighth day.
(§3) Picrinine group (10 mg/kg), Vallesamine group (6.0 mg/kg), Scholaricine group (7.0 mg/kg), 19-epischolaricine group (2.0 mg/kg).
(§4) Sample preparation: all the samples were prepared by using 0.5% carboxymethylcellulose sodium (0.5% CMC-Na).
Group and dose: in Test group 1, the ratio of picrinine, vallesamine, scholaricine and 19-epischolaricine by weight was 16:11:12:3, and the other groups and doses thereof were as described in Example 10.
Test index: SOD in serum and lung homogenate was used as index, and was determined by xanthine oxidase method.

Test [2] relates to MDA in serum and BALF of asthma model mouse. Description: Effect on MDA in serum and BALF of asthma model mouse. To be noted: ig 7 d, dose/kg: dexamethasone 2.0 mg, Test group 1 50, 2 25, picrinine 5.0, vallesamine 3.0, scholaricine 3.0, 19-epi-scholaricine 3.5 mg, x ± SD; for MDA lavage fluid: BALF. As for the experimental part: as §1
(§5) Method and route: ovalbumin (OVA) was used to induce mouse asthma model, and after intragastrical administration for 7 d at a dose of 20 mL/kg, the animal was sacrificed at the eighth day.
(§6) Test group 1: picrinine, vallesamine, scholaricine and 19-epischolaricine prepared in Example 1.7 were homogeneously mixed at different ratios by weight (50 mg/kg), Test group 2: the alkaloid composition prepared in Example 1.4 (25 mg/kg). […]
as §4
Group and dose: in Test group 1, the ratio of picrinine, vallesamine, scholaricine and 19-epischolaricine by weight was 8:6:5:1, and the other groups and doses thereof were as described in Example 11.
Test index: MDA in serum and BALF was used as index, and was determined by thiobarbituric acid method.

For test [3], the system named is Eotaxin in serum of asthma model mouse. Description: Effect on Eotaxin in serum of asthma model mouse. Conditions: ELISA, ig 7 d, dose/kg: dexamethasone 2.0 mg, Test group 1 50, 2 25, picrinine 5.0, vallesamine 3.0, scholaricine 3.0, 19-epi-scholaricine 3.5 mg, x ± SD. As for the experimental part: as §1, §5, §6, §4
Group and dose: in Test group 1, the ratio of picrinine, vallesamine, scholaricine and 19-epischolaricine by weight was 37:42:30:8, and the other groups and doses thereof were as described in Example 11.
Test index: eosinophil chemotactic factor (Eotaxin) in serum was used as index, and was determined by enzyme linked immunosorbent assay.

Test [4] concerns white blood cell count and classification in BALF of COPD model mouse. As to the kind of experiment: Effect on white blood cell count and classification in BALF of COPD model mouse. To be noted: COPD mouse (LPS plus smoke exposure 30 days), ig 7 d, dose/kg: dexamethasone 1 mg, Test group 1 50, 2 25, 3 10, picrinine 10, vallesamine 6, scholaricine 7, 19-epi-scholaricine 2 mg, x ± SD. As for the experimental part: as §1, §2, §3, §4
Group and dose: in Test group 1, the ratio of picrinine, vallesamine, scholaricine and 19-epischolaricine by weight was 48:40:29:10, and the other groups and doses thereof were as described in Example 10.
Test index: total number of white blood cells and inflammatory cell classification in bronchoalveolar lavage fluid (BALF) were used as indexes, and were determined by full-automatic hemocytometer.

For test [5], the system named is WBC count and eosinophil percentage in BALF of asthma model mouse. As to the kind of experiment: Effect on WBC count and eosinophil percentage in BALF of asthma model mouse. Conditions: OVA-induced asthma mouse, ig 7 d, dose/kg: dexamethasone 2 mg, Test group 1 50, 2 25, picrinine 5.0, vallesamine 3.0, scholaricine 3.0, 19-epi-scholaricine 3.5 mg, x ± SD. As for the experimental part:
as §1, §5, §6, §4
Group and dose: in Test group 1, the ratio of picrinine, vallesamine, scholaricine and 19-epischolaricine by weight was 41:45:28:7, and the other groups and doses thereof were as described in Example 11.
Test index: number of white blood cells (WBCs) and number of eosinophil in bronchoalveolar lavage fluid (BALF) were used as index, and were determined by full-automatic hemocytometer.

Test [6] relates to SOD in serum and BALF of asthma model mouse. As to the kind of experiment: Effect on SOD in serum and BALF of asthma model mouse. To be noted: ig 7 d, dose/kg: dexamethasone 2.0 mg, Test group 1 50, 2 25, picrinine 5.0, vallesamine 3.0, scholaricine 3.0, 19-epi-scholaricine 3.5 mg, x ± SD; for SOD lavage fluid: BALF. As for the experimental part: as §1, §5, §6, §4
Group and dose: in Test group 1, the ratio of picrinine, vallesamine, scholaricine and 19-epischolaricine by weight was 12:10:9:2, and the other groups and doses thereof were as described in Example 11.
Test index: SOD in serum and BALF was used as index, and was determined by xanthine oxidase method.

Test [7] has as its system MDA in serum and homogenate of COPD model mouse. As to the kind of experiment: Effect on MDA in serum and homogenate of COPD model mouse. Conditions: ig 7 d; for MDA Homogenate: lung homogenate; for MDA Homogenate / MDA Serum: dose/kg: dexamethasone 1 mg, Test group 1 50, 2 25, 3 10, picrinine 10, vallesamine 6, scholaricine 7, 19-epi-scholaricine 2 mg, x ± SD; for content of MDA (serum or homogenate not given): vallesamine 6, scholaricine 7, 19-epi-scholaricine 2 mg/kg. As for the experimental part:
as §1, §2, §3, §4
Group and dose: in Test group 1, the ratio of picrinine, vallesamine, scholaricine and 19-epischolaricine by weight was 9:6:5:1, and the other groups and doses thereof were as described in Example 10.
Test index: MDA in serum and homogenate was used as index, and was determined by thibabituric acid method.

Test [8] relates to IL-10 in BALF of asthma model mouse. Description: Effect on IL-10 in BALF of asthma model mouse. Conditions: ELISA, ig 7 d, dose/kg: dexamethasone 2.0 mg, Test group 1 50, 2 25, picrinine 5.0, vallesamine 3.0, scholaricine 3.0, 19-epi-scholaricine 3.5 mg, x ± SD. As for the experimental part:
as §1, §5, §6, §4
Group and dose: in Test group 1, the ratio of picrinine, vallesamine, scholaricine and 19-epischolaricine by weight was 18:13:14:3, and the other groups and doses thereof were as described in Example 11.
Test index: IL-10 in BALF was used as index, and was determined by enzyme linked immunosorbent assay.
(In general: In an ELISA, binding on a coated surface is turned into a signal by an enzyme label.)

Test [9] deals with IL-4 in BALF of asthma model mouse. As to the kind of experiment: Effect on IL-4 in BALF of asthma model mouse. Conditions: ELISA, ig 7 d, dose/kg: dexamethasone 2.0 mg, Test group 1 50, 2 25, picrinine 5.0, vallesamine 3.0, scholaricine 3.0, 19-epi-scholaricine 3.5 mg, x ± SD. As for the experimental part:
as §1, §5, §6, §4
Group and dose: in Test group 1, the ratio of picrinine, vallesamine, scholaricine and 19-epischolaricine by weight was 25:18:15:3, and the other groups and doses thereof were as described in Example 11. […]

Test [10] has as its system IgE in serum of asthma model mouse. As to the kind of experiment: Effect on IgE in serum of asthma model mouse. To be noted: ELISA, ig 7 d, dose/kg: dexamethasone 2.0 mg, Test group 1 50, 2 25, picrinine 5.0, vallesamine 3.0, scholaricine 3.0, 19-epi-scholaricine 3.5 mg, x ± SD. As for the experimental part:
as §1, §5, §6, §4
Group and dose: In Test group 1, the ratio of picrinine, vallesamine, scholaricine and 19-epischolaricine by weight was 30:33:27:6, and the other groups and doses thereof were as described in Example 11.
Test index: immunoglobulin IgE in serum was used as index, and was determined by enzyme linked immunosorbent assay.

The subject of test [11] is IL-6 in serum of COPD model mouse. Description: Effect on IL-6 in serum of COPD model mouse. To be noted: ELISA, ig 7 d, dose/kg: dexamethasone 1 mg, Test group 1 50, 2 25, 3 10, picrinine 10, vallesamine 6, scholaricine 7, 19-epi-scholaricine 2 mg, x ± SD. As for the experimental part: as §1, §2, §3, §4
Group and dose: in Test group 1, the ratio of picrinine, vallesamine, scholaricine and 19-epischolaricine by weight was 38:30:27:7, and the other groups and doses thereof were as described in Example 10.
Test index: IL-6 in serum was used as index, and was determined by enzyme linked immunosorbent assay.

As for `C/C=C1/CN2[C@@H]3C[C@@]45c6ccccc6N[C@]4(O3)[C@@H]2C[C@@H]1[C@H]5C(=O)OC` [picrinine], in [1], the SOD homogenate was determined as 56.01 ± 12.78 U/mL and the “SOD Serum” value came to 91.15 ± 10.90 U/mL. Further, in test [2], the MDA lavage fluid came out at 3.29 ± 2.07 nmol/mL and the MDA Serum is 14.03 ± 5.71 nmol/mL. The Eotaxin in test [3] was 9.03 ± 1.80 pg/mL. The Leukocyte number in [4] is on record as 2.1 ± 1.8 ×10^5/mL. Moreover, in test [5], the Eosinophil percentage is listed as 6.18 ± 3.61% and the “Number of WBCs” value was 0.91 ± 0.50 ×10^9/L. In test [6], this compound had an SOD lavage fluid of 62.32 ± 8.22 U/mL and an SOD Serum of 70.31 ± 7.30 U/mL. Further, in test [7], the “MDA Homogenate” value amounted to 6.17 ± 1.46 nmol/mL and the “MDA Serum” value amounted to 11.21 ± 4.46 nmol/mL. This compound also registered an IL-10 in test [8] of 13.00 ± 3.15 pg/mL. The compound further came in with an IL-4 in [9] of 12.60 ± 4.39 pg/mL. In addition, in test [10], the IgE is 3.85 ± 0.72 µg/mL. Also, the IL-6 in test [11] turned out to be 23.9 ± 3.9 pg/mL.

In test [1], `COC(=O)C1=C2Nc3c(O)cccc3[C@@]23CCN2C[C@@H]([C@H](C)O)[C@@H]1C[C@H]23` [19-epi-scholaricine, 19-epischolaricine] yielded an SOD homogenate of 61.32 ± 9.35 U/mL. In addition, in test [2], the MDA lavage fluid is reported as 2.55 ± 1.47 nmol/mL and the MDA Serum is listed as 13.55 ± 4.66 nmol/mL. The Eotaxin in [3] turned out to be 8.74 ± 1.40 pg/mL. For the same compound, in [4], the Leukocyte number is recorded as 2.0 ± 1.6 ×10^5/mL. In test [6], the SOD lavage fluid is 71.82 ± 12.39 U/mL and the SOD Serum is 73.85 ± 7.93 U/mL. Also, in test [7], the “content of MDA (serum or homogenate not given)” value is “significantly decrease”, the “MDA Homogenate” value worked out at 6.03 ± 0.66 nmol/mL and the “MDA Serum” value turned out to be 10.94 ± 1.67 nmol/mL. The IL-4 in [9] was found to be 11.16 ± 3.58 pg/mL. The same compound had an IgE in test [10] of 3.55 ± 0.87 µg/mL. This compound also gave an IL-6 in test [11] of 23.3 ± 4.1 pg/mL.

Consider `C/C=C1/CN2CC[C@@H]1[C@@](CO)(C(=O)OC)c1[nH]c3ccccc3c1C2` [vallesamine], for which, in test [1], the SOD homogenate was found to be 58.43 ± 5.73 U/mL and the “SOD Serum” value turned out to be 91.72 ± 12.34 U/mL. Also, in [2], the MDA lavage fluid is 2.92 ± 1.48 nmol/mL and the MDA Serum is 13.36 ± 6.10 nmol/mL. In addition, in test [3], the Eotaxin is listed as 8.90 ± 2.36 pg/mL. Further, in test [4], the Leukocyte number is given as 1.8 ± 1.7 ×10^5/mL and the Neutrophil number is on record as 0.75 ± 0.51 ×10^5/mL. In test [5], the Eosinophil percentage is 6.48 ± 2.84% and the “Number of WBCs” value is listed as 0.73 ± 0.35 ×10^9/L. Besides, in test [6], the SOD lavage fluid is 70.88 ± 8.52 U/mL and the SOD Serum is on record as 70.53 ± 7.77 U/mL. In [7], the “content of MDA (serum or homogenate not given)” value is listed as “significantly decrease”, the “MDA Homogenate” value was determined as 7.12 ± 1.44 nmol/mL and the “MDA Serum” value came out at 11.07 ± 1.29 nmol/mL. Moreover, the IL-10 in [8] turned out to be 14.83 ± 3.49 pg/mL. This compound showed an IL-4 in test [9] of 11.61 ± 2.40 pg/mL. Also, the IgE in test [10] is 3.57 ± 0.99 µg/mL. Besides, in [11], the IL-6 amounted to 25.0 ± 3.6 pg/mL.

Values taken from patent US10603345B2, “Pharmaceutical composition for treating respiratory disease” (Kunming Institute of Botany, The Chinese Academy of Sciences, priority 2015, dated 2020).
